Measurements from PMC6764291 (Frontiers in Oncology, 2019).
“Also recorded” adds a separate entry of the source.

Columns and labels:
[1] = tested on: cleaved caspase-3; experiment: Flow cytometry cleaved caspase-3, UM-SCC-74B; type: cell-based, human
Method: (§1) Cells were irradiated using ^137Cs gamma-ray photons at a dose-rate of ~1 Gy/min (Best Theratronics Gammacell® 40Exactor, Springfield, USA).
(§2) Cells were collected and fixed in 70% ethanol at 6, 12, 24, 48, 72, and 96 h post-irradiation and stored at −20°C. For cell cycle analyses, 6, 12, 24, and 48 h samples were rehydrated and washed twice with PBS and stained with DAPI (Sigma Aldrich Sweden, Stockholm, Sweden) using 1 μg/ml for 30 min. 24, 48, 72, and 96 h samples were stained with caspase-3 and Noxa (ab13847 (1:500) and ab13654 (1:1,000), AbCam, Cambridge, UK) overnight at 4°C, followed by incubation with fluorescent labeled secondary antibodies for 90 min (ab 1:400) at room temperature. Analyses were performed using a BD LSR Fortessa flow cytometer (Becton Dickinson Biosciences, San Jose, USA). Data analyses for cleaved caspase-3 and Noxa were performed with BD FACSDiVa (Becton Dickinson Biosciences, San Jose, USA), while cell cycle analyses of exclusively viable cells were performed using FlowJo (Becton, Dickinson Biosciences, San Jose, USA). Coefficient of variation (CV) values, were below seven for all samples.

[2] = tested on: HCT116; experiment: Cell cycle analysis by flow cytometry, HCT116; type: cell-based; conditions: for G2/M-phase / S-phase: viable cells, DAPI
Method: as §1, §2

[3] = tested on: UM-SCC-74B; experiment: Cell cycle analysis by flow cytometry, UM-SCC-74B; type: cell-based, human; conditions: for G2/M-phase / S-phase: viable cells, DAPI
Method: as §1, §2

[4] = tested on: UM-SCC-74A; experiment: XTT cell viability, UM-SCC-74A; type: cell-based, human
Method: The human squamous cell carcinoma cell lines UM-SCC-74A and UM-SCC-74B were kindly provided by Professor TE Carey (University of Michigan, USA) and cultured in Dulbecco's Modified Eagle Medium (DMEM) with 10% fetal bovine serum, 1% L-glutamine, 1% antibiotics (100 IU penicillin and 100 μg/ml streptomycin) as well as 1% non-essential amino acids (all from Biochrom Kg, Berlin, Germany). UT-SCC-45 (kindly provided by Dr. R. Grenman, Turku University Central Hospital, Finland) was cultured in DMEM with the abovementioned additives. HCT116 and A431 were purchased from American Type Culture Collection (Manassas, VA, USA). HCT116 was cultured in McCoy's modified Eagle medium with 10% fetal bovine serum, 1% L-glutamine and 1% antibiotics (100 IU penicillin and 100 μg/ml streptomycin) and A431 was cultured in Ham's F10 with the same additives. H314 was purchased from the European Collection of Authenticated Cell Cultures (Salisbury, UK) in DMEM/Ham's F12 (1:1) with the abovementioned additives. Cells were incubated at 37°C with 5% CO2, and cultivated for no longer than 2 months at a time.
as §1
Five-hundred to ten thousands cells were seeded in flat-bottomed 96-well plates and incubated for 48 h prior to irradiation with 2Gy. […] Cells were incubated at 37° for 4–5 days until 80–90% confluence had been obtained. A mix of XTT Activation Reagent and XTT Reagent was added according to the American Type Culture Collection 30–1011 K protocol (Manassas, VA, USA). Plates were incubated for up to 6 h at 37° and absorbance was measured by using a BioMark Microplate Reader (Bio-Rad Laboratories AB, Solna, Sweden).
GraphPad Prism version 6.07 (GraphPad Software, San Diego, USA) was used for data processing and analysis. p-values were determined using unpaired student's t-test for comparison between two groups or one-way ANOVA followed by Tukey's multiple comparisons test, with p < 0.05 (^*), p < 0.01 (^**), p < 0.001 (^***), and p < 0.0001 (^****). For XTT assays cell viability was normalized for irradiated and unirradiated samples separately. […] CDI ≤ 0.7 equaled significant synergistic effect, CDI ≤ 1 equaled additive effect and CDI > 1 equaled antagonistic effect ([29]).

[5] = tested on: cleaved caspase-3; experiment: Flow cytometry cleaved caspase-3, HCT116; type: cell-based
Method: as §1, §2

[6] = tested on: A431; experiment: XTT cell viability, A431; type: cell-based; conditions: n ≥ 4
Method: The human squamous cell carcinoma cell lines UM-SCC-74A and UM-SCC-74B were kindly provided by Professor TE Carey (University of Michigan, USA) and cultured in Dulbecco's Modified Eagle Medium (DMEM) with 10% fetal bovine serum, 1% L-glutamine, 1% antibiotics (100 IU penicillin and 100 μg/ml streptomycin) as well as 1% non-essential amino acids (all from Biochrom Kg, Berlin, Germany). UT-SCC-45 (kindly provided by Dr. R. Grenman, Turku University Central Hospital, Finland) was cultured in DMEM with the abovementioned additives. HCT116 and A431 were purchased from American Type Culture Collection (Manassas, VA, USA). […]
Five-hundred to ten thousands cells were seeded in flat-bottomed 96-well plates and incubated for 48 h prior to irradiation with 2Gy. […] Plates were incubated for up to 6 h at 37° and absorbance was measured by using a BioMark Microplate Reader (Bio-Rad Laboratories AB, Solna, Sweden).
GraphPad Prism version 6.07 (GraphPad Software, San Diego, USA) was used for data processing and analysis. p-values were determined using unpaired student's t-test for comparison between two groups or one-way ANOVA followed by Tukey's multiple comparisons test, with p < 0.05 (^*), p < 0.01 (^**), p < 0.001 (^***), and p < 0.0001 (^****). […]

[7] = tested on: cleaved caspase-3; experiment: Western Blot cleaved caspase-3 expression, UM-SCC-74B; type: cell-based, human
Method: as §1
Whole-cell lysates were prepared according to standard protocols. Protein concentrations were measured using a DeNovix DS-11 spectrophotometer (DeNovix Inc., Wilmington, DE, USA). Samples were separated on 4–12% Bis-Tris SDS gels and transferred to a nitrocellulose membrane (ThermoFisher Scientific, Uppsala, Sweden) by wet-transfer blotting. The membrane was blocked for 1 h in PBS with 5% BSA before incubation with primary antibodies targeting p53, caspase-3, NaK-ATPase and GLB1 (DO-1 (ab1101), ab13847, ab76020 and ab128993, AbCam, Cambridge, UK) and β-actin (A5441, Sigma Aldrich Sweden, Stockholm, Sweden) at 4°C overnight. After washing with PBS with 1% Tween-20, the membrane was incubated with respective and species-specific Horse Radish Peroxidase-labeled secondary antibody (ThermoFisher Scientific, Waltham, MA, USA) and stained with electro-chemiluminescent solution (Immobilon, Millipore, Bedford, USA).

[8] = Combination 2 Gy + 20 μM PM2, 6 h
[9] = Combination 2 Gy + 20 μM PM2, 12 h
[10] = Combination 2 Gy + 20 μM PM2, 24 h
[11] = Combination 2 Gy + 20 μM PM2, 48 h

For CC(=O)N[C@H](C(=O)N[C@@H](CO)C(=O)N[C@@H](Cc1ccccc1)C(=O)N[C@]1(C)CCCCCCC=CCCC[C@@](C)(C(N)=O)NC(=O)[C@H](CC(C)C)NC(=O)[C@H](CC(C)C)NC(=O)[C@H](C)NC(=O)[C@H](Cc2c[nH]c3ccccc23)NC(=O)[C@H](Cc2ccc(O)cc2)NC(=O)[C@H](CCC(=O)O)NC1=O)[C@@H](C)O [PM2], the “cleaved caspase-3 expression” value ([1]; 20 μM PM2, 72 h) was “distinct increases”, the “cleaved caspase-3 increase compared to controls” value ([1]; 20 μM PM2-treated, peak at 72 h, n ≥ 3) was 40 fold and the “cleaved caspase-3, combination versus PM2 alone” value ([1]; 2 Gy + 20 μM PM2, p ≤ 0.05) was “significantly higher expression levels”. For the same compound, the G2/M-phase ([2]; 20 μM PM2 alone, 6 h) was 19.4%, the S-phase ([2]; 20 μM PM2 alone, 6 h) was 55.8% and the G2/M-phase ([2]; 20 μM PM2 alone, 12 h) was 30.1%. For the same compound, the S-phase ([2]; 20 μM PM2 alone, 12 h) was 35.1%, the G2/M-phase ([2]; 20 μM PM2 alone, 24 h) was 21.1% and the S-phase ([2]; 20 μM PM2 alone, 24 h) was 10.7%. The G2/M-phase ([2]; 20 μM PM2 alone, 48 h) was 20.6%, the S-phase ([2]; 20 μM PM2 alone, 48 h) was 23% and the “S-phase reduction / depletion” value ([2]; 2 Gy + 20 μM PM2) was “S-phase reduction occurred as early as 12 h post-treatment; also recorded: S-phase depletion at 24 h post-treatment”. For the same compound, the “G2/M-phase cells versus untreated controls” value ([2]; 2 Gy + 20 μM PM2, throughout 48 h) was “More than twice as many cells”, the G2/M-phase [2, 8] was 39.9% and the S-phase [2, 8] was 44.9%. For the same compound, the G2/M-phase [2, 9] was 53.8%, the S-phase [2, 9] was 17.3% and the G2/M-phase [2, 10] was 42.7%. For the same compound, the S-phase [2, 10] was 5.51%, the G2/M-phase [2, 11] was 29.9% and the S-phase [2, 11] was 17.5%. The G2/M-phase ([3]; 20 μM PM2 alone, 6 h) was 19.7%, the S-phase ([3]; 20 μM PM2 alone, 6 h) was 41.6% and the G2/M-phase ([3]; 20 μM PM2 alone, 24 h) was 16.7%. For the same compound, the S-phase ([3]; 20 μM PM2 alone, 24 h) was 12.9%, the G2/M-phase ([3]; 20 μM PM2 alone, 48 h) was 10.8% and the S-phase ([3]; 20 μM PM2 alone, 48 h) was 17.4%. For the same compound, the “S-phase reduction / depletion” value ([3]; 2 Gy + 20 μM PM2) was “S-phase reduction occurred as early as 12 h post-treatment; also recorded: S-phase depletion at 24 h post-treatment”, the G2/M-phase [3, 8] was 37.9% and the S-phase [3, 8] was 42.9%. It also gave a G2/M-phase [3, 9] of 39.4%, a S-phase [3, 9] of 7.31% and a G2/M-phase [3, 10] of 23.8%. For the same compound, the S-phase [3, 10] was 2.89%, the G2/M-phase [3, 11] was 20.6% and the S-phase [3, 11] was 5.37%. For the same compound, the PM2 effect ([4]; 0–20 μM PM2, 0 Gy, wild-type p53, HPV negative, n ≥ 4) was “decreased significantly the viability and Yes”, the average viability reduction ([4]; 20 μM PM2, 0 Gy, compared to untreated controls) was 73% and the “lowest PM2 dose with significant decrease of viability” value ([4]; PM2 alone) was ~ 10 μM. The IC50 ([4]; PM2 alone (0 Gy), 4–5 days) was 16 µM, the “Significant effect of combination” value ([4]; PM2 with 2 Gy EBRT, n ≥ 4) was “Yes” and the “cleaved caspase-3 expression” value ([5]; 20 μM PM2, 72 h) was “distinct increases”. The “cleaved caspase-3 increase compared to controls” value ([5]; 20 μM PM2-treated, peak at 96 h, n ≥ 3) was 10 fold, the PM2 effect ([6]; 0–20 μM PM2, 0 Gy, single base p53 mutation, HPV negative) was “did not affect and unaffected and No” and the “Significant effect of combination” value ([6]; PM2 with 2 Gy EBRT) was “significantly decreased the viability and significant decrease in viability and Yes”. The “increase in cleaved caspase-3 levels” value ([7]; 20 μM PM2, 72 h, normalized to controls, n ≥ 3) was “Four-fold”, the “cleaved caspase-3 expression” value ([7]; 20 μM PM2-treated samples, n ≥ 3) was “increase in expression” and the “cleaved caspase-3 expression, combination” value ([7]; 2 Gy + 20 μM PM2, n ≥ 3) was “predominant”.
